This note sets out measurements from US8481540B2, “Inhibitors of bruton's tyrosine kinase” (Hoffmann-La Roche Inc., priority 2010, dated 2013).

This test relates to B cells in human blood. The experiment in a line: Inhibition of B cell activation in whole blood measured by CD69 expression. It counts as cell-based. The conditions noted are these: CD69-positive, CD20-positive cells after anti-IgM stimulation, human whole blood, 20 hours, read-out: Human Whole Blood. As to the method: Inhibition of B Cell Activation in Whole Blood Measured by CD69 Expression
A procedure to test the ability of Btk inhibitors to suppress B cell receptor-mediated activation of B cells in human blood is as follows:
Human whole blood (HWB) is obtained from healthy volunteers, with the following restrictions: 24 hr drug-free, non-smokers. Blood is collected by venipuncture into Vacutainer tubes anticoagulated with sodium heparin. Test compounds are diluted to […] the desired starting drug concentration in PBS (20×), followed by three-fold serial dilutions in 10% DMSO in PBS to produce a nine point dose-response curve. 5.5 μl of each compound dilution is added in duplicate to a 2 ml96-well V bottom plate (Analytical Sales and Services, #59623-23); 5.5 μl of 10% DMSO in PBS is added to control and no-stimulus wells. HWB (100 μl) is added to each well, and after mixing the plates are incubated at 37 C, 5% CO2, 100% humidity for 30 minutes. Goat F(ab′)2 anti-human IgM (Southern Biotech, #2022-14) (10 μl of a […] solution, 50 μg/ml final concentration) is added to each well (except the no-stimulus wells) with mixing and the plates are incubated for an additional 20 hours.
At the end of the 20 hour incubation, samples are incubated with florescent-probe-labeled anti-bodies (15 μl PE Mouse anti-Human CD20, BD Pharmingen, #555623, and/or 20 ul APC Mouse anti-Human CD69, BD Pharmingen #555533) for 30 minutes, at 37 C, 5% CO2, 100% humidity. Included are induced control, unstained and single stains for compensation adjustments and initial voltage settings. Samples are then lysed with 1 ml of 1× Pharmingen Lyse Buffer (BD Pharmingen #555899), and plates are centrifuged at 1800 rpm for 5 minutes. Supernatants are removed via suction and the remaining pellets are lysed again with another 1 ml of 1× Pharmingen Lyse Buffer, and plates are spun down as before. Supernatants are aspirated and remaining pellets are washed in FACs buffer (PBS+1% FBS). After a final spin, the supernantants are removed and pellets are resuspended in 180 μl of FACs buffer. Samples are transferred to a 96 well plate suitable to be run on the HTS 96 well system on the BD LSR II flow cytometer.
Using appropriate excitation and emission wavelengths for the fluorophores used, data are acquired and percent positive cell values are obtained using Cell Quest Software. Results are initially analyzed by FACS analysis software (Flow Jo). […] The IC50 values are calculated using XLfit software version 3, equation 201.
Representative compound data for this assay are listed below in Table II.

With `CCN1CCC(c2ccc(Nc3cc(-c4cccc(-n5ncc6cc(C(C)(C)C)cc(F)c6c5=O)c4CO)nn(C)c3=O)nc2)CC1` [I-30, 6-tert-Butyl-2-{3-[5-(1′-ethyl-1′,2′,3′,4′,5′,6′-hexahydro-[3,4]bipyridinyl-6-ylamino)-1-methyl-6-oxo-1,6-dihydro-pyridazin-3-yl]-2-hydroxymethyl-phenyl}-8-fluoro-2H-phthalazin-1-one], the IC50 worked out at 4 nM.
In the case of `Cc1cc(Nc2cc(-c3cccc(-n4ncc5cc(C(C)(C)C)cc(F)c5c4=O)c3CO)nn(C)c2=O)nn1C` [I-31, 6-tert-Butyl-2-{3-[5-(1,5-dimethyl-1H-pyrazol-3-ylamino)-1-methyl-6-oxo-1,6-dihydro-pyridazin-3-yl]-2-hydroxymethyl-phenyl}-8-fluoro-2H-phthalazin-1-one], the IC50 amounted to 32 nM.
Take `CN1CC[C@@H](c2ccc(Nc3cc(-c4cccc(-n5ncc6cc(C(C)(C)C)cc(F)c6c5=O)c4CO)nn(C)c3=O)nc2)C1` [I-32, 6-tert-Butyl-8-fluoro-2-(2-hydroxymethyl-3-[1-methyl-5-[5-((S)-1-methyl-pyrrolidin-3-yl)-pyridin-2-ylamino]-6-oxo-1,6-dihydro-pyridazin-3-yl]-phenyl)-2H-phthalazin-1-one]: the IC50 is 23 nM.
Turning to `CN1CC[C@H](c2ccc(Nc3cc(-c4cccc(-n5ncc6cc(C(C)(C)C)cc(F)c6c5=O)c4CO)nn(C)c3=O)nc2)C1` [I-33, 6-tert-Butyl-8-fluoro-2-(2-hydroxymethyl-3-{1-methyl-5-[5-((R)-1-methyl-pyrrolidin-3-yl)-pyridin-2-ylamino]-6-oxo-1,6-dihydro-pyridazin-3-yl}-phenyl)-2H-phthalazin-1-one], the IC50 stood at 2 nM.
On to `CN1CCN(Cc2ccc(Nc3cc(-c4cccc(-n5ncc6cc(C(C)(C)C)cc(F)c6c5=O)c4CO)nn(C)c3=O)nc2)CC1` [I-41, 6-tert-Butyl-8-fluoro-2-(2-hydroxymethyl-3-{1-methyl-5-[5-(4-methyl-piperazin-1-ylmethyl)-pyridin-2-ylamino]-6-oxo-1,6-dihydro-pyridazin-3-yl}-phenyl)-2H-phthalazin-1-one], for which the IC50 stood at 15 nM.
As to `COCCN(C)Cc1ccc(Nc2cc(-c3cccc(-n4ncc5cc(C(C)(C)C)cc(F)c5c4=O)c3CO)nn(C)c2=O)nc1` [I-44, 6-tert-Butyl-8-fluoro-2-{2-hydroxymethyl-3-[5-(5-{[(2-methoxy-ethyl)-methyl-amino]-methyl}-pyridin-2-ylamino)-1-methyl-6-oxo-1,6-dihydro-pyridazin-3-yl]-phenyl}-2H-phthalazin-1-one], the IC50 came out at 14 nM.
For `CN1CCN(c2ccc(Nc3cc(-c4cccc(-n5ncc6cc(C(C)(C)C)cc(F)c6c5=O)c4CO)nn(C)c3=O)nn2)CC1` [I-45, 6-tert-Butyl-8-fluoro-2-(2-hydroxymethyl-3-{1-methyl-5-[6-(4-methyl-piperazin-1-yl)-pyridazin-3-ylamino]-6-oxo-1,6-dihydro-pyridazin-3-yl}-phenyl)-2H-phthalazin-1-one] the value was 27 nM; for `CN1C[C@@H]2C[C@H]1CN2c1ccc(Nc2cc(-c3cccc(-n4ncc5cc(C(C)(C)C)cc(F)c5c4=O)c3CO)nn(C)c2=O)nn1` [I-46, 6-tert-Butyl-8-fluoro-2-(2-hydroxymethyl-3-{1-methyl-5-[6-((1S,4S)-5-methyl-2,5-diaza-bicyclo[2.2.1]hept-2-yl)-pyridazin-3-ylamino]-6-oxo-1,6-dihydro-pyridazin-3-yl}-phenyl)-2H-phthalazin-1-one], 293 nM; for `Cn1nc(-c2cccc(-n3ncc4cc(C(C)(C)C)cc(F)c4c3=O)c2CO)cc(Nc2ccc(C(=O)N3CCC3)cn2)c1=O` [I-47, 2-(3-{5-[5-(Azetidine-1-carbonyl)-pyridin-2-ylamino]-1-methyl-6-oxo-1,6-dihydro-pyridazin-3-yl}-2-hydroxymethyl-phenyl)-6-tert-butyl-8-fluoro-2H-phthalazin-1-one], 76 nM.
For the compound `Cn1nc(-c2cccc(-n3ncc4cc(C(C)(C)C)cc(F)c4c3=O)c2CO)cc(Nc2ccc(C(=O)N3CCS(=O)(=O)CC3)cn2)c1=O` [I-48, 6-tert-Butyl-2-(3-{5-[5-(1,1-dioxo-1λ^6-thiomorpholine-4-carbonyl)-pyridin-2-ylamino]-1-methyl-6-oxo-1,6-dihydro-pyridazin-3-yl}-2-hydroxymethyl-phenyl)-8-fluoro-2H-phthalazin-1-one], the IC50 was 185 nM.
Consider `Cn1nc(-c2cccc(-n3ncc4cc(C(C)(C)C)cc(F)c4c3=O)c2CO)cc(Nc2ccc(C(=O)N3CC4(COC4)C3)cn2)c1=O` [I-49, 2-(3-(5-(5-(2-oxa-6-azaspiro[3.3]heptane-6-carbonyl)pyridin-2-ylamino)-1-methyl-6-oxo-1,6-dihydropyridazin-3-yl)-2-(hydroxymethyl)phenyl)-6-tert-butyl-8-fluorophthalazin-1(2H)-one], for which the IC50 was 85 nM.
For `CN1CC2(C1)CN(C(=O)c1ccc(Nc3cc(-c4cccc(-n5ncc6cc(C(C)(C)C)cc(F)c6c5=O)c4CO)nn(C)c3=O)nc1)C2` [I-50, 6-tert-butyl-8-fluoro-2-(2-(hydroxymethyl)-3-(1-methyl-5-(5-(6-methyl-2,6-diazaspiro[3.3]heptane-2-carbonyl)pyridin-2-ylamino)-6-oxo-1,6-dihydropyridazin-3-yl)phenyl)phthalazin-1(2H)-one] the value was 86 nM; for `CN(C)CCNC(=O)c1ccc(Nc2cc(-c3cccc(-n4ncc5cc(C(C)(C)C)cc(F)c5c4=O)c3CO)nn(C)c2=O)nc1` [I-51, 6-(6-(3-(6-tert-butyl-8-fluoro-1-oxophthalazin-2(1H)-yl)-2-(hydroxymethyl)phenyl)-2-methyl-3-oxo-2,3-dihydropyridazin-4-ylamino)-N-(2-(dimethylamino)ethyl)nicotinamide], 19 nM; for `CN(CCO)C(=O)c1ccc(Nc2cc(-c3cccc(-n4ncc5cc(C(C)(C)C)cc(F)c5c4=O)c3CO)nn(C)c2=O)nc1` [I-52, 6-(6-(3-(6-tert-butyl-8-fluoro-1-oxophthalazin-2(1H)-yl)-2-(hydroxymethyl)phenyl)-2-methyl-3-oxo-2,3-dihydropyridazin-4-ylamino)-N-(2-hydroxyethyl)-N-methylnicotinamide], 27 nM.
The result for `Cn1nc(-c2cccc(-n3ncc4cc(C(C)(C)C)cc(F)c4c3=O)c2CO)cc(Nc2ccc(C(=O)N3CC(C#N)C3)cn2)c1=O` [I-53, 1-(6-(6-(3-(6-tert-butyl-8-fluoro-1-oxophthalazin-2(1H)-yl)-2-(hydroxymethyl)phenyl)-2-methyl-3-oxo-2,3-dihydropyridazin-4-ylamino)nicotinoyl)azetidine-3-carbonitrile] reads 39 nM.
Take `Cn1nc(-c2cccc(-n3ncc4cc(C(C)(C)C)cc(F)c4c3=O)c2CO)cc(Nc2ccc(C(=O)N3CCC(O)C3)cn2)c1=O` (stereo not shown) [I-54, 6-tert-butyl-8-fluoro-2-(2-(hydroxymethyl)-3-(5-(5-(3-hydroxypyrrolidine-1-carbonyl)pyridin-2-ylamino)-1-methyl-6-oxo-1,6-dihydropyridazin-3-yl)phenyl)phthalazin-1(2H)-one]: the IC50 is 104 nM.
The result for `Cn1nc(-c2cccc(-n3ncc4cc(C(C)(C)C)cc(F)c4c3=O)c2CO)cc(Nc2ccc(C(=O)N3CCC(O)CC3)cn2)c1=O` [I-55, 6-tert-butyl-8-fluoro-2-(2-(hydroxymethyl)-3-(5-(5-(4-hydroxypiperidine-1-carbonyl)pyridin-2-ylamino)-1-methyl-6-oxo-1,6-dihydropyridazin-3-yl)phenyl)phthalazin-1(2H)-one] reads 41 nM.
As to `CN1CCN(c2ccc(Nc3cc(-c4cccc(-n5ncc6cc(C(C)(C)C)cc(F)c6c5=O)c4CO)nn(C)c3=O)nc2)CC1` [I-56, 6-tert-Butyl-8-fluoro-2-(2-hydroxymethyl-3-{1-methyl-5-[5-(4-methyl-piperazin-1-yl)-pyridin-2-ylamino]-6-oxo-1,6-dihydro-pyridazin-3-yl}-phenyl)-2H-phthalazin-1-one], the IC50 was 17 nM.
The result for `Cn1nc(-c2cccc(-n3ncc4cc(C(C)(C)C)cc(F)c4c3=O)c2CO)cc(Nc2ccc(C3CCNCC3)cn2)c1=O` [I-61, 6-tert-butyl-8-fluoro-2-(2-(hydroxymethyl)-3-(1-methyl-6-oxo-5-(5-(piperidin-4-yl)pyridin-2-ylamino)-1,6-dihydropyridazin-3-yl)phenyl)phthalazin-1(2H)-one] reads 74 nM.
